In patent US12366579B2, “Sulfur-heterocycle exchange chemistry and uses thereof” (University of Virginia Patent Foundation, priority 2019, dated 2025):
“Also recorded” adds a separate entry of the source.

Tests used:
[1] = molecular target: T1, PLD3 (Y437) (Homo sapiens, UniProt Q8IV08); assay: Competitive chemical proteomics of SuTEx fragments vs HHS-482, PLD3 site; assay type: binding; details: fragment 50 μM, 30 min, 37° C.
T1 construct: endogenous in cells; host or cells: DM93 melanoma cells, soluble proteome (lysate)
T1 sequence (Q8IV08 whole entry, the tested form may be a part): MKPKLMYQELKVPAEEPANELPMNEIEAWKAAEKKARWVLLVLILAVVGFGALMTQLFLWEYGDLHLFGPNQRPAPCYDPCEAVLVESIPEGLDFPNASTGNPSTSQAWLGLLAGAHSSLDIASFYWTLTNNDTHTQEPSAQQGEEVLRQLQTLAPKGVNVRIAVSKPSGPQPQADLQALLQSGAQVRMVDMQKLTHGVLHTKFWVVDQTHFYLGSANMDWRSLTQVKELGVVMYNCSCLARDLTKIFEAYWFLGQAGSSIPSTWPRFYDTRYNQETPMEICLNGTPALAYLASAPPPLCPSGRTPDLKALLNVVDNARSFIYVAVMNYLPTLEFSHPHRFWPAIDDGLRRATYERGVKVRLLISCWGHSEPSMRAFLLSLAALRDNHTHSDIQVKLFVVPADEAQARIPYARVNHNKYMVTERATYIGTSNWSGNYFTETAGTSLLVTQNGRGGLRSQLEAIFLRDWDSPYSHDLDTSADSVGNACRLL
Protocol: (§1) Heavy and light proteomes (432 μl of each) were diluted to 2.3 mg ml^−1 in PBS and sample aliquots (432 μl) were treated with SuTEx fragment at the indicated concentrations (5 μl, 100× stock in DMSO), mixed gently and incubated for 30 min at 37° C. Samples were then treated with HHS-482 (5 μL, 5 mM stock in DMSO) for 30 min at 37° C. Probe-modified proteomes were conjugated to desthiobiotin-PEG3-azide followed by enrichment of probe-modified peptides for nano-electrospray ionization-LC-MS/MS analyses as previously described^57.
The chemical proteomic method for functional tyrosine profiling^72 was tailored to investigate AG/LG effects on SuTEx fragment reactivity in complex proteomes. In brief, isotopically light and heavy soluble proteomes from DM93 melanoma cells cultured by stable isotopic labeling by amino acids in cell culture (SILAC^80) media were used for quantitative liquid chromatography-mass spectrometry (LC-MS) studies. […] Proteomes were digested with trypsin protease, HHS-482-modified peptides enriched by avidin chromatography and analyzed by high-resolution LC-MS/MS and bioinformatics as described hereinabove.
To evaluate substituent effects on proteome activity, reactivity profiles of each respective SuTEx fragment were compared across >1500 total distinct HHS-482-modified tyrosine sites from >650 detected proteins. […]

[2] = molecular target: T2, recombinant GSTP1 lysates (Homo sapiens, UniProt P09211); assay: GSTP1 biochemical substrate assay (GSH conjugation to BDNB)
T2 construct: FLAG (C); host or cells: HEK293T, transient transfection; soluble proteome used unpurified
T2 sequence (P09211 whole entry): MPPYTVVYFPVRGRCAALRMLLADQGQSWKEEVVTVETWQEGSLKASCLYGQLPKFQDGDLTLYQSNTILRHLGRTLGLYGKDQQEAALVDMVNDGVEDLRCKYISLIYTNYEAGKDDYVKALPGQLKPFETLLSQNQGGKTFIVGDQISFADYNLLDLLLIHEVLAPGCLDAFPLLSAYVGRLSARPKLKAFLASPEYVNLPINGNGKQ
Protocol: GSTP1 Biochemical Substrate Assay
Recombinant GSTP1-HEK293T soluble cell proteomes were diluted to 1 mg ml^−1 in assay buffer (100 mM NaH2PO4, pH 7.0). Samples were treated with inhibitor at indicated concentrations for 30 min at 37° C. GSH stock solution (250 mM in water) was diluted to 4 mM in assay buffer and 25 μl of diluted GSH solution was added to each sample. A substrate stock solution of 75 mM 1-bromo-2,4-dinitrobenzene […] in ethanol was diluted to 2 mM in assay buffer. Samples (25 μl) were aliquoted into a 96-well plate and spun briefly via centrifuge. Next, 50 μl of 2 mM BDNB was added to each well and the reaction was monitored in kinetic mode by measuring absorbance at 340 nm for 10 min on a BMG Labtech CLARIOstar plate reader (BMG Labtech, Cary, North Carolina, United States of America).

[3] = HPLC assay for solution reactivity of sulfonyl triazole fragments with p-cresol; assay type: physicochemical; details: HPLC assay, TMG base
Protocol: HPLC Assay for Profiling Solution Reactivity and Stability of Sulfonyl Triazole Fragments
The following reagents were prepared and stored on ice prior to use. 0.1 M solution of caffeine in acetonitrile, 1.0 M solution of n-butylamine, p-cresol, tetramethylguanidine […], 1 M HOAc in ACN and 10 mM solution of SuTEx fragment in DMF-ACN mixture (10:90, v/v). 500 μL of fragment solution was transferred to a dram vial on ice. To the mixture, 5.5 μL of TMG and 5.5 μL of p-cresol or n-butylamine was added and solutions were stirred on ice for 6 h. To monitor reactivity, 50 μL aliquots were removed at indicated time points and quenched with 10 μL of a 1:1 mixture of caffeine and HOAc. Samples were injected (1 μL) and analyzed by reverse-phase HPLC on a Shimadzu 1100 Series spectrometer (Shimadzu, Kyoto, Japan) with UV detection at 254 nm. Reaction progress was evaluated by monitoring consumption of starting material (SuTEx fragment) normalized to caffeine standard. Chromatographic separation was performed using a Phenomenex Kinetex C18 column (2.6 μm, 50×4.6 mm) (Phenomenex, Torrance, California, United States of America). Mobile phases A and B were composed of H2O+0.1% HOAc and ACN+0.1% HOAc, respectively. Samples were analyzed using the following analytical conditions: using a flow rate of 0.8 ml min^−1, the gradient was as follows: 0-0.5 min, 15% B; 0.5-6.5 min 85% B; 6.5-7 min 100% B: 7-8.5 min 100% B; 8.5-9 min 15% B; 9-9.8 min 15% B.

[4] = molecular target: T3, human GSTP1 (hGSTP1) (Homo sapiens, UniProt P09211); assay: Gel-based competitive chemical proteomic screen with HHS-482, recombinant hGSTP1-HEK293T soluble proteomes; assay type: binding; details: fragment 50 μM, 30 min, 37° C.
T3 construct: FLAG (C); host or cells: HEK293T, transient transfection; soluble proteome used unpurified
T3 sequence (P09211 whole entry, the tested form may be a part): as the sequence (P09211 whole entry) above
Protocol: Gel-Based Chemical Proteomic Assay
Cell pellets were lysed in PBS and fractionated (100,000×g, 45 min, 4° C.) to generate soluble and membrane fractions. Protein concentrations were determined using Bio-Rad DC protein assay (Bio-Rad Laboratories, Inc., Hercules, California, United States of America), and adjusted to 1 mgml^−1 in PBS. Proteome samples (49 μl aliquots) were treated with DMSO vehicle or indicated concentration of SuTEx fragment (1 μL, 50× stock in DMSO) for 30 min at 37° C. Samples were then treated with HHS-482 probe (1 μL, 2.5 mM stock in DMSO) for 30 min at 37° C. Probe labeled samples were conjugated to rhodamine-azide (1 μL, 1.25 mM stock; final concentration of 25 μM) by copper-catalyzed azide-alkyne cycloadditions (CuAAC) for 1 h at room temperature followed by SDS-PAGE and in-gel fluorescence scanning as previously described^57.

[5] = molecular target: T4, GSTP1 Y8 (Homo sapiens, UniProt P09211); assay: Quantitative chemical proteomics of live SILAC DM93 cells treated with SuTEx fragments; assay type: cell-based
T4 construct: endogenous in cells; host or cells: DM93 melanoma cells (SILAC)
T4 sequence (P09211 whole entry, the tested form may be a part): as the sequence (P09211 whole entry) above
Protocol: Live Cell Evaluation of Sulfonyl-Triazole Fragments
Cells grown to ˜90% confluency in 10 cm plates were treated with DMSO vehicle or SuTEx fragment (10 μl of 1,000× stock) in serum-free media for the indicated concentrations and times at 37° C. with 5% CO2. After treatment, cells were washed with cold PBS twice before collection and preparation for gel-based chemical proteomic evaluation as described above. For LC-MS studies, protein concentrations were normalized to 2.3 mg ml^−1 and 432 μl (for 1 mg final protein amount) were used for sample preparation as detailed below.
as §1
Next, SILAC DM93 cells were treated with JWB152 or JWB198 to determine whether these SuTEx fragments could ligand Y8 of endogenous GSTP1 in living systems (50 μM compound, 1.5 hr, 37° C.). Cells were pretreated with DMSO vehicle or SuTEx fragments followed by cells lysis, HHS-482 labeling of proteomes, and quantitative chemical proteomics.

[6] = tested on: DM93 soluble proteomes; assay: Proteome-wide competitive chemical proteomics of SuTEx fragments vs HHS-482; assay type: binding, human; details: fragment 50 μM, 30 min, 37° C.
Protocol: as §1
The chemical proteomic method for functional tyrosine profiling^72 was tailored to investigate AG/LG effects on SuTEx fragment reactivity in complex proteomes. In brief, isotopically light and heavy soluble proteomes from DM93 melanoma cells cultured by stable isotopic labeling by amino acids in cell culture (SILAC^80) media were used for quantitative liquid chromatography-mass spectrometry (LC-MS) studies. Light and heavy DM93 proteomes were treated with dimethyl sulfoxide (DMSO) vehicle or SuTEx fragment (50 μM, 30 min, 37° C.), respectively, followed by labeling with the tyrosine-reactive probe HHS-482 described hereinabove (50 μM, 30 min, 37° C.) and copper-catalyzed azide-alkyne cycloaddition (CuAAC) conjugation of a desthiobiotin-azide enrichment tag. Proteomes were digested with trypsin protease, HHS-482-modified peptides enriched by avidin chromatography and analyzed by high-resolution LC-MS/MS and bioinformatics as described hereinabove.
To evaluate substituent effects on proteome activity, reactivity profiles of each respective SuTEx fragment were compared across >1500 total distinct HHS-482-modified tyrosine sites from >650 detected proteins. Fragments were screened across independent biological replicates (n=2-3) and high-quality tyrosine site annotations were identified by detection in at least a single biological replicate from each fragment dataset, probe-specific enrichment (HHS-482 probe/DMSO SILAC ratio (SR)>5), and quality control confidence criteria of ≥300 Byonic score^31, […] protein false discovery rate (FDR), and ≤5 ppm mass accuracy in order to minimize the potential for false positives^72. SILAC ratios (SR) from competitive studies (Light-DMSO/Heavy-fragment) were used to identify fragment-competed tyrosine residues as sites showing >75% reduction in enrichment by HHS-482 compared with DMSO vehicle control (i.e. liganded tyrosines, SR>4). In total, 305 liganded tyrosines on 213 distinct proteins were identified, corresponding to ˜30% and ˜44% of total quantified tyrosines and proteins, respectively. […]

| blockade of HHS-482 labeling of native GSTP1 Y8 in live cells ([5]; 50 μM compound, 1.5 hr, 37° C.) [%] | SILAC ratio (SR) at other GSTP1 probe-modified sites ([5]; Y50, Y64, Y80, Y119, and Y199, 50 μM) | IC50 ([2]; inhibitor 30 min at 37° C., n=3, read-out: IC50, in vitro potency against GSTP1 by GSH substrate assay) [µM] | Compound | SILAC ratio (SR) at tyrosine competed site PLD3 Y437 [1] | inhibitory activity against GSTP1 ([2]; negative control probes, highest concentration tested 100 μM) | solution reactivity with p-cresol [3] | block of HHS-482 labeling of GSTP1 [4] | liganded tyrosine frequency (SR>4) [6] [%] |
| --- | --- | --- | --- | --- | --- | --- | --- | --- |
|  |  |  | O=S(=O)(C1CC1)n1cnc(-c2ccc(C(F)(F)F)cc2)n1 [JWB146, 1-(Cyclopropylsulfonyl)-3-(4-(trifluoromethyl)phenyl)-1H-1,2,4-triazole] | > 6 | lack of activity; also recorded: did not show inhibitory activity | largely unreactive |  |  |
| ~70 | ~1 | 16 | O=S(=O)(c1ccc2ccccc2c1)n1cnc(-c2ccncc2)n1 [JWB198, 4-(1-(Naphthalen-2-ylsulfonyl)-1H-1,2,4-triazol-3-yl)pyridine] |  |  |  | block HHS-482 labeling to levels comparable with Y8F mutant | 1.3 |
